This passage reports IC50 results from BindingDB's records for doi:10.3109/14756360903179401 (Universidad Nacional Autonoma De Mexico, 2010).

By IC50 is commonly meant the concentration at which inhibition is half-maximal. Read a high IC50 as lower potency.

The test addresses T1, cDNA, FLJ78895, highly similar to 3-oxo-5-alpha-steroid 4-dehydrogenase 1 (Homo sapiens, UniProt B7Z4L2).
T1 sequence (B7Z4L2 whole entry): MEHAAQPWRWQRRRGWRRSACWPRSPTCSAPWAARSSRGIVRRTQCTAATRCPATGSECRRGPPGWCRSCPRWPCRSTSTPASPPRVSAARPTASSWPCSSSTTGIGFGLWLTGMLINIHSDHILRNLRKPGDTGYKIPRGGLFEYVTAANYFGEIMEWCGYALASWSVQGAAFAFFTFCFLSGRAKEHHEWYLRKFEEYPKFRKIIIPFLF
Nature of the test: 5α-Reductase Activity Assay. The conditions noted are these: pH 6.5; 37 °C. How it is done: The reaction mixture contained a final volume of 1 mL: 1 mM dithiothreitol, sodium phosphate buffer 40 mM, at pH 6.5 for human prostate, 2 mM NADPH, 2 nM [1,2,6,7-3H]T [Cabeza et al., Steroids 60:630-5]. The reaction in duplicate was started when it was added to the enzymatic fraction (500 μg protein in a volume of 80 μL) incubated at 37°C for 60 min [Hirosumi et al., J. Steroid Biochem. Mol. Biol., 52:357-63] and stopped by mixing with 1 mL of dichloromethane; this was considered as the end point. Incubation without tissue was used as a control. The mixture (incubation medium/dichloromethane) was agitated on a vortex for 1 min and the dichloromethane phase was separated and placed in another tube. This procedure was repeated four more times. The dichloromethane extract was evaporated to dryness under a nitrogen stream and suspended in […] that was spotted on high-performance thin layer chromatography (HPTLC) Keiselgel 60 F254 plates. T and DHT were used as carriers, and were applied in different lanes on both lateral sides of the plates (T, T + DHT, and DHT). The plates were developed in chloroform-acetone, 9:1, and were air-dried; the chromatography was repeated twice more. The steroid carriers were detected using phosphomolybdic acid reagent (DHT) and with an ultraviolet (UV) lamp (254 nm) (T). After the plates were segmented into pieces of 1 cm each, these were cut off and the strips soaked in 5 mL of Ultima Gold (Packard). The radioactivity was determined in a scintillation counter (Packard Tri-Carb 2100 TR). The radioactivity content in the segment corresponding to T and DHT carriers was identified. Radioactivity with identical chromatographic behavior to the DHT standard was considered as the DHT transformation.
As for `CC(=O)O[C@]1(C(C)=O)CCC2C3C(CC[C@@]21C)[C@@]1(C)CCC(=O)C=C1[C@H]1O[C@@H]31` (stereo partly drawn) [3,20-Dioxo-6,7-epoxypregn-4-ene-7α-yl acetate (8)], the IC50 is 22 nM.

For the compound `CC(=O)O[C@]1(C(C)=O)CCC2C3C=CC4=CC(=O)CC[C@]4(C)C3CC[C@@]21C` (stereo partly drawn) [3,20-Dioxopregna-4,6-dien-17α-yl acetate (7)], the midpoint of inhibition, the IC50, lay at 70 nM.

In turn, `CC(=O)O[C@]1(C(C)=O)CCC2C3C=C(Cl)C4=CC(=O)CC[C@]4(C)C3CC[C@@]21C` (stereo partly drawn) [6-Chloro-3,20-dioxopregna-4,6-diene-17α-yl acetate (9)] showed a concentration for half-maximal inhibition (IC50) of 19 nM.

Compound `CC(=O)O[C@]1(C(C)=O)CCC2C3CCC4=CC(=O)CC[C@]4(C)C3CC[C@@]21C` (stereo partly drawn) [17α-Acetoxyprogesterone (6)] registered an IC50 of 10 nM.

On to `CC(C)(C)NC(=O)C1CCC2C3CCC4NC(=O)C=C[C@]4(C)C3CC[C@]12C` (stereo not given in full) [Finasteride (3)], for which the half-maximal inhibitory concentration (IC50) was 8.5 nM.
